Source: publication PMC6105827, “Antitrypanosomal 8-Hydroxy-Naphthyridines Are Chelators of Divalent Transition Metals” (Antimicrobial Agents and Chemotherapy, 2018)
Where two headings read alike, the source gives them in different places.

Tests used:
[1] = system: Tb927.11.1910 knockdown bloodstream trypanosomes; experiment: Drug sensitivity of Tb927.11.1910 RNAi knockdown trypanosomes; type: cell-based; conditions: Trypanosoma brucei, read-out: EC50, Tb927.11.1910 knockdown
From the text: (§1) Stem-loop RNAi constructs were assembled as described previously ([54], [62]). PCR primers were designed by using RNAit software ([63]). For HL2 (Tb927.11.15050), primers HL2FW and HL2RV were used to generate a 533-bp gene fragment, and for HL3 (Tb927.11.1910), primers HL3FW and HL3RV were used to generate a 513-bp gene fragment. The accuracy of all assembled constructs was verified by sequencing. Assembled constructs were linearized by using AscI prior to transfection into bloodstream T. brucei 2T1 parasites ([62]). In addition to phleomycin (1 μg ml^−1), trypanosomes maintaining successfully integrated vectors were selected using hygromycin (2.5 μg ml^−1) and confirmed to be puromycin (2 μg ml^−1) resistant. To generate C-terminal 12×Myc tagging vectors for Tb927.11.15050 (Myc1) and Tb927.11.1910 (Myc2), primers Myc1FW and Myc1RV and primers Myc2FW and Myc2RV were used to generate 924-bp and 1,095-bp fragments, respectively. Fragments were inserted into the pNATx^12xMyc construct ([54]) via HindIII and XbaI restriction sites. The accuracy of the assembled constructs was verified by sequencing, and the constructs were linearized with the restriction endonuclease MfeI prior to transfection into the above-described HL2 and HL3 trypanosomes. Trypanosomes maintaining successfully integrated vectors were selected with blasticidin (1 μg ml^−1).

[2] = system: L. donovani intramacrophage amastigotes; experiment: L. donovani intramacrophage compound sensitivity assay; type: cell-based; conditions: Leishmania donovani, read-out: Intra-macrophage EC50
Experimental: (§2) L. donovani intramacrophage ([7]), HepG2 ([55]), T. brucei ([56]), and L. donovani promastigote ([57]) compound sensitivity assays were carried out as described previously. Human HepG2 and THP-1 cells used in these assays were provided by the ATCC. Data were processed by using GRAFIT (version 5.0.4; Erithacus Software) and fitted to a 2-parameter equation to obtain the effective concentration inhibiting growth by 50% (EC50). Data are presented as the means of results from at least two independent experiments.

[3] = system: Tb927.11.15050 knockdown bloodstream trypanosomes; experiment: Drug sensitivity of Tb927.11.15050 RNAi knockdown trypanosomes; type: cell-based, Trypanosoma brucei; conditions: induced vs uninduced RNAi knockdown
From the text: as §1

[4] = system: T. brucei bloodstream forms; experiment: microbe, parasite or virus in culture
Experimental: (§3) The clonal Leishmania donovani cell line LdBOB (derived from MHOM/SD/62/1S-CL2D) was grown as promastigotes at 28°C, as described previously ([53]). Bloodstream-form T. brucei MiTat 1.2 clone 221a and its derived subline, 2T1, were cultured at 37°C in the presence of 5% CO2 in HMI9-T medium, as described previously ([54]). The human carcinoma HepG2 cell line was grown at 37°C with 5% CO2 in minimal Eagle's medium (MEM) with GlutaMAX (1×; Sigma-Aldrich), nonessential amino acids (Sigma-Aldrich), and 10% FBS. Human HepG2 and THP-1 cells used in this study were ethically sourced from the ATCC.
as §2
(§4) In the first instance, the maximum tolerated concentrations of ZnCl2, CaCl2, CuCl2, MgCl2, MnCl2, and FeCl2 were determined for each cell type. […] Standard drug sensitivity assays were carried out (as described above) for each cell type with compounds 1, 2, and 3 in the presence and absence of the maximum tolerated concentration of metal salt.

[5] = Spectrophotometric UV-Vis titration and Job's plot of binding to divalent cations; type: physicochemical
Experimental: UV-visible (UV-Vis) titrations were carried out essentially as described previously ([65], [66]). Aliquots of metal divalent cations (concentrated stocks were made initially in water and then diluted in methanol) were added to a fixed concentration of 50 μM 8-HNT compound in methanol. After each aliquot addition, the incubation mixture was left to stabilize for 5 min at 25°C prior to scanning. Wavelength scanning was carried out at between 260 and 510 nm by using a UV-2401 PC UV-Vis spectrophotometer (Shimadzu). For Job's plot analyses ([66]), the combined concentration of 8-HNT and cation was fixed at 200 μM, and only the molar ratio of cation versus 8-HNT compound varied. Changes of the absorption at 475, 390, and 375 nm were indicative of cation complex formation with compounds 1 to 3, respectively. Specific absorbance at these wavelengths was determined and plotted against the molar ratio of compound to cation to determine complex stoichiometry ([66]).

[6] = system: HepG2 cells; experiment: HepG2 compound sensitivity assay (with/without ZnCl2); conditions: Homo sapiens, HepG2, read-out: HepG2 EC50
Experimental: as §3, §2, §4

Question: Which EC50 [1] does the source give for Cc1nnc(-c2nc(NCc3ccc(Cl)cc3)c3cccnc3c2O)[nH]1 [Compound 1] here?
Answer: The EC50 was 600 ± 50 nM.

Question: And the EC50 [2]?
Answer: Its EC50 is 2100 nM.

Question: And the “Increase in EC50 on knockdown of Tb927.11.15050” value [3]?
Answer: Its value is over 3 fold.

Question: What about the “Shift (fold)” value ([4]; CaCl2 (3 mM) vs WT) of the same molecule?
Answer: The value was 1.1 fold.

Question: What about the “Shift (fold)” value ([4]; CuCl2 (5 μM) vs WT) of the same molecule?
Answer: Its value is 1.1 fold.

Question: And the “Shift (fold)” value ([4]; FeCl2 (10 μM) vs WT)?
Answer: The value was 8.0 fold.

Question: And the “Shift (fold)” value ([4]; FeCl2 (10 μM) vs WT, listed as compound 1)?
Answer: Its value is 8 fold.

Question: And the “Shift (fold)” value ([4]; MgCl2 (1 mM) vs WT)?
Answer: Its value is 1.1 fold.

Question: And the “Shift (fold)” value ([4]; MnCl2 (10 μM) vs WT)?
Answer: The value was 1.0 fold.

Question: What about the EC50 ([4]; Trypanosoma brucei, read-out: EC50, wild-type [WT] trypanosomes) of the same molecule?
Answer: Its EC50 is 850 ± 50 nM.

Question: What about the EC50 ([4]; Trypanosoma brucei, read-out: Mean EC50 ± SD, Plus cation, plus CaCl2 (3 mM)) of the same molecule?
Answer: The EC50 was 400 ± 100 nM.

Question: What about the EC50 ([4]; Trypanosoma brucei, read-out: Mean EC50 ± SD, Plus cation, plus CuCl2 (5 μM)) of the same molecule?
Answer: The EC50 was 400 ± 5 nM.

Question: What about the EC50 ([4]; Trypanosoma brucei, read-out: Mean EC50 ± SD, Plus cation, plus MgCl2 (1 mM)) of the same molecule?
Answer: The EC50 was 400 ± 30 nM.

Question: What about the EC50 ([4]; Trypanosoma brucei, read-out: Mean EC50 ± SD, Plus cation, plus MnCl2 (10 μM)) of the same molecule?
Answer: The EC50 was 400 ± 20 nM.

Question: And the EC50 ([4]; Trypanosoma brucei, read-out: Mean EC50 ± SD, WT, absence of cation, CaCl2 experiment)?
Answer: Its EC50 is 300 ± 800 nM.

Question: What about the EC50 ([4]; Trypanosoma brucei, read-out: Mean EC50 ± SD, WT, absence of cation, CuCl2 experiment) of the same molecule?
Answer: The EC50 was 300 ± 80 nM.

Question: And the EC50 ([4]; Trypanosoma brucei, read-out: Mean EC50 ± SD, WT, absence of cation, FeCl2 experiment)?
Answer: The EC50 was 220 ± 10 nM.

Question: What about the EC50 ([4]; Trypanosoma brucei, read-out: Mean EC50 ± SD, WT, absence of cation, MgCl2 experiment) of the same molecule?
Answer: Its EC50 is 400 ± 10 nM.

Question: What about the EC50 ([4]; Trypanosoma brucei, read-out: Mean EC50 ± SD, WT, absence of cation, MnCl2 experiment) of the same molecule?
Answer: The EC50 was 400 ± 10 nM.

Question: And the EC50 ([4]; Trypanosoma brucei, read-out: Mean EC50 ± SD, WT, absence of cation, ZnCl2 experiment)?
Answer: Its EC50 is 360 ± 90 nM.

Question: And the EC50 ([4]; Trypanosoma brucei, read-out: T. brucei bsf EC50, bloodstream form (Fig. 1))?
Answer: The EC50 was 320 nM.

Question: And the “Shift (fold)” value ([4]; ZnCl2 (200 μM) vs WT)?
Answer: The value was 8.0 fold.

Question: What about the “Shift (fold)” value ([4]; ZnCl2 (200 μM) vs WT, listed as compound 1) of the same molecule?
Answer: The value was 8 fold.

Question: And the EC50 ([4]; read-out: Mean EC50 ± SD, WT, absence of cation, FeCl2 experiment)?
Answer: The EC50 was 200 ± 10 nM.

Question: And the EC50 ([4]; read-out: Mean EC50 ± SD, WT, absence of cation, ZnCl2 experiment)?
Answer: The EC50 was 350 ± 10 nM.

Question: And the “Zn^2+ concentration at which binding is saturable” value ([5]; 50 μM compound, absorbance at 475 nm)?
Answer: The value was 25 µM.

Question: What about the “Job's plot intercept, molar fraction (compound to Zn^2+)” value ([5]; combined concentration 200 μM in methanol, absorbance 475/390/375 nm) of the same molecule?
Answer: Its value is 0.34.

Question: What about the EC50 [6] of the same molecule?
Answer: Its EC50 is 10400 nM.
